Several values for one entry are separate records, joined by “and”; a condition that tells them apart may be missing. Identical values can stand only once. Toxic doses and inconclusive results are not listed.
System: CD2F1 mice, L1210 leukemia ip, survival T/C
Experiment: NCI In Vivo Anticancer Drug Screen. Data for tumor model L1210 Leukemia (intraperitoneal) in CD2F1 (CDF1) mice
Conditions: higher = longer survival
Outline: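 Read-out first: treated-group measurement over vehicle-control measurement, expressed as a ratio. Animals bore a transplanted tumor line and were dosed with compound or vehicle.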

[1] = endpoint: mean survival time, dose: 100.0 mg/kg/injection, schedule: Q04DX003 (ip), vehicle: saline
[2] = endpoint: mean survival time, dose: 100.0 mg/kg/injection, schedule: Q01DX001 (ip), vehicle: saline with Tween-80
[3] = endpoint: mean survival time, dose: 200.0 mg/kg/injection, schedule: Q01DX001 (ip), vehicle: saline with Tween-80
[4] = endpoint: mean survival time, dose: 400.0 mg/kg/injection, schedule: Q01DX001 (ip), vehicle: saline with Tween-80
[5] = endpoint: mean survival time, dose: 100.0 mg/kg/injection, schedule: Q04DX003 (ip), vehicle: saline with Tween-80
[6] = endpoint: mean survival time, dose: 200.0 mg/kg/injection, schedule: Q04DX003 (ip), vehicle: saline with Tween-80
[7] = endpoint: mean survival time, dose: 100.0 mg/kg/injection, schedule: Q04DX002 (ip), vehicle: saline with Tween-80
[8] = endpoint: mean survival time, dose: 200.0 mg/kg/injection, schedule: Q04DX002 (ip), vehicle: saline with Tween-80
[9] = endpoint: mean survival time, dose: 400.0 mg/kg/injection, schedule: Q04DX002 (ip), vehicle: saline with Tween-80
[10] = endpoint: mean survival time, dose: 400.0 mg/kg/injection, schedule: Q04DX003 (ip), vehicle: saline with Tween-80
[11] = endpoint: mean survival time, dose: 100.0 mg/kg/injection, schedule: Q01DX009 (ip), vehicle: saline with Tween-80
[12] = endpoint: mean survival time, dose: 200.0 mg/kg/injection, schedule: Q01DX009 (ip), vehicle: saline with Tween-80
[13] = endpoint: mean survival time, dose: 400.0 mg/kg/injection, schedule: Q01DX009 (ip), vehicle: saline with Tween-80

For COc1ccc(CSc2nn(C3OC(COC(=O)c4ccccc4)C(OC(=O)c4ccccc4)C3OC(=O)c3ccccc3)c(=O)[nH]c2=S)cc1 (stereo not given), the T/C (endpoint: mean survival time, dose: 12.5 mg/kg/injection, schedule: Q01DX005 (ip), vehicle: distilled water + Tween-80) was 104 % of control, the T/C (endpoint: mean survival time, dose: 25.0 mg/kg/injection, schedule: Q01DX005 (ip), vehicle: distilled water + Tween-80) was 101 % of control and the T/C (endpoint: mean survival time, dose: 50.0 mg/kg/injection, schedule: Q01DX005 (ip), vehicle: distilled water + Tween-80) was 93 % of control. The T/C (endpoint: mean survival time, dose: 100.0 mg/kg/injection, schedule: Q01DX005 (ip), vehicle: distilled water + Tween-80) was 93 % of control and the T/C (endpoint: mean survival time, dose: 200.0 mg/kg/injection, schedule: Q01DX005 (ip), vehicle: distilled water + Tween-80) was 90 % of control.
CC12C(=O)OC(=O)C1(C)C1CCC2O1 (stereo not given) was tested, and the T/C (endpoint: mean survival time, dose: 0.39 mg/kg/injection, schedule: Q01DX009 (ip), vehicle: saline with Tween-80) was 94 % of control, the T/C (endpoint: mean survival time, dose: 0.78 mg/kg/injection, schedule: Q01DX009 (ip), vehicle: saline with Tween-80) was 98 % of control and the T/C (endpoint: mean survival time, dose: 1.56 mg/kg/injection, schedule: Q01DX009 (ip), vehicle: saline with Tween-80) was 105 % of control. The T/C (endpoint: mean survival time, dose: 1.56 mg/kg/injection, schedule: Q04DX002 (ip), vehicle: saline with Tween-80) was 92 % of control.
COc1cc2c(cc1OC)C(C)=NCC2 was tested, and the T/C [1] was 104 % of control.
With COC(=O)C1(C)CCCC2(C)C1CCC13C(O)C(C(C)C)C1CC23 (stereo not given) the T/C [2] was 86 % of control, the T/C [3] was 91 % of control and the T/C [4] was 97 % of control.
In the case of COc1ccc2c(c1)C=CC(C#N)N2 (stereo not given), the T/C [5] is reported as 87 % of control and the T/C [6] is reported as 91 % of control.
With COn1c(-c2ccccc2)nc2c1C(=O)N(C)CN2C the T/C (endpoint: mean survival time, dose: 12.5 mg/kg/injection, schedule: Q01DX005 (ip), vehicle: other) was 96 % of control, the T/C (endpoint: mean survival time, dose: 25.0 mg/kg/injection, schedule: Q01DX005 (ip), vehicle: other) was 96 % of control and the T/C (endpoint: mean survival time, dose: 50.0 mg/kg/injection, schedule: Q01DX005 (ip), vehicle: other) was 96 % of control. For the same molecule, the T/C (endpoint: mean survival time, dose: 100.0 mg/kg/injection, schedule: Q01DX005 (ip), vehicle: other) was 95 % of control and the T/C (endpoint: mean survival time, dose: 200.0 mg/kg/injection, schedule: Q01DX005 (ip), vehicle: other) was 96 % of control.
With O=C(O)CCOc1cc(F)c(Cl)cc1Cl the T/C [7] was 94 % of control, the T/C [8] was 86 % of control and the T/C [9] was 86 % of control.
With C/C(=N\Nc1ccc([N+](=O)[O-])cc1[N+](=O)[O-])C1CCCCC1 the T/C [5] was 100 % of control, the T/C [6] was 91 % of control and the T/C [10] was 91 % of control.
With Nc1nc([S-])c2[nH]cnc2n1.[Cl-].[Cl-].[H+].[Pd+2].[Pd+2].[Pd+2] the T/C (endpoint: mean survival time, dose: 3.13 mg/kg/injection, schedule: Q04DX003 (ip), vehicle: saline with Tween-80) was 124 % of control, the T/C (endpoint: mean survival time, dose: 6.25 mg/kg/injection, schedule: Q04DX003 (ip), vehicle: saline with Tween-80) was 164 % of control and the T/C (endpoint: mean survival time, dose: 100.0 mg/kg/injection, schedule: Q04DX003 (ip), vehicle: suspension in saline) was 114 % of control and 91 % of control.
For CCCCCCCC(=O)Nc1cccc(C)c1C, the T/C [11] was 105 % of control, the T/C [12] was 89 % of control and the T/C [13] was 104 % of control.
CC(C)COC(=O)c1ccc(NC(=O)Nc2ccccc2Cl)cc1 was tested, and the T/C [11] was 93 % of control, the T/C [5] was 93 % of control and the T/C [12] was 89 % of control. For the same molecule, the T/C [10] was 101 % of control.
In the case of CCOC(=O)C1CN(C(=O)OCC)CC1=O (stereo not given), the T/C (endpoint: mean survival time, dose: 50.0 mg/kg/injection, schedule: Q01DX001 (ip), vehicle: other) is reported as 103 % of control, the T/C (endpoint: mean survival time, dose: 100.0 mg/kg/injection, schedule: Q01DX001 (ip), vehicle: other) is reported as 106 % of control and the T/C (endpoint: mean survival time, dose: 200.0 mg/kg/injection, schedule: Q01DX001 (ip), vehicle: other) is reported as 107 % of control. For the same molecule, the T/C (endpoint: mean survival time, dose: 400.0 mg/kg/injection, schedule: Q01DX001 (ip), vehicle: other) was 109 % of control.
For COc1ccc2c(c1OC(C)=O)-c1cc(O)cc3c1C(C2)N(C(=O)CN(CCCl)CCCl)CC3 (stereo not given), the T/C (endpoint: mean survival time, dose: 6.25 mg/kg/injection, schedule: Q04DX003 (ip), vehicle: DMSO) was 98 % of control, the T/C (endpoint: mean survival time, dose: 12.5 mg/kg/injection, schedule: Q04DX003 (ip), vehicle: DMSO) was 91 % of control and the T/C (endpoint: mean survival time, dose: 25.0 mg/kg/injection, schedule: Q04DX003 (ip), vehicle: DMSO) was 100 % of control. For the same molecule, the T/C (endpoint: mean survival time, dose: 50.0 mg/kg/injection, schedule: Q04DX003 (ip), vehicle: DMSO) was 102 % of control.
For O=C(O)c1ccc([N+](=O)[O-])cc1, the T/C (endpoint: mean survival time, dose: 100.0 mg/kg/injection, schedule: Q04DX002 (ip), vehicle: Klucel (hydroxypropylcellulose) (HPC)) was 93 % of control, the T/C (endpoint: mean survival time, dose: 200.0 mg/kg/injection, schedule: Q04DX002 (ip), vehicle: Klucel (hydroxypropylcellulose) (HPC)) was 101 % of control and the T/C (endpoint: mean survival time, dose: 400.0 mg/kg/injection, schedule: Q04DX002 (ip), vehicle: Klucel (hydroxypropylcellulose) (HPC)) was 86 % of control.
Cc1ccc(S(=O)(=O)N(C)Cc2ccccc2)cc1 was tested, and the T/C [11] was 96 % of control, the T/C [12] was 106 % of control and the T/C [13] was 98 % of control.
CC(O)C(=O)NN (stereo not given) was tested, and the T/C [11] was 112 % of control, the T/C [12] was 116 % of control and the T/C [13] was 93 % of control.
In the case of O=C(O)CCC(=O)c1ccccc1, the T/C (endpoint: mean survival time, dose: 50.0 mg/kg/injection, schedule: Q01DX009 (ip), vehicle: saline with Tween-80) is reported as 101 % of control, the T/C [11] is reported as 106 % of control and the T/C [12] is reported as 106 % of control.
Nc1c(/C=C/c2cc3cc(C4=NCCN4)ccc3o2)[nH]c2cc(C3=NCCN3)ccc12 was tested, and the T/C (endpoint: median survival time, dose: 3.12 mg/kg/injection, schedule: Q01DX009 (ip), vehicle: Klucel (hydroxypropylcellulose) (HPC)) was 124 % of control, the T/C (endpoint: median survival time, dose: 18.0 mg/kg/injection, schedule: Q01DX005 (ip), vehicle: Klucel (hydroxypropylcellulose) (HPC)) was 178 % of control and the T/C (endpoint: median survival time, dose: 25.0 mg/kg/injection, schedule: Q01DX005 (ip), vehicle: Klucel (hydroxypropylcellulose) (HPC)) was 160 % of control. The T/C (endpoint: median survival time, dose: 30.0 mg/kg/injection, schedule: Q01DX005 (ip), vehicle: Klucel (hydroxypropylcellulose) (HPC)) was 297 % of control and the T/C (endpoint: median survival time, dose: 50.0 mg/kg/injection, schedule: Q01DX005 (ip), vehicle: Klucel (hydroxypropylcellulose) (HPC)) was 171 % of control and 237 % of control.
With Cc1cc(C(O)CNC(C)CCn2cnc3c2c(=O)n(C)c(=O)n3C)ccc1O (stereo not given) the T/C (endpoint: mean survival time, dose: 12.5 mg/kg/injection, schedule: Q01DX005 (ip), vehicle: water) was 93 % of control, the T/C (endpoint: mean survival time, dose: 25.0 mg/kg/injection, schedule: Q01DX005 (ip), vehicle: water) was 96 % of control and the T/C (endpoint: mean survival time, dose: 50.0 mg/kg/injection, schedule: Q01DX005 (ip), vehicle: water) was 96 % of control. For the same molecule, the T/C (endpoint: mean survival time, dose: 100.0 mg/kg/injection, schedule: Q01DX005 (ip), vehicle: water) was 100 % of control and the T/C (endpoint: mean survival time, dose: 200.0 mg/kg/injection, schedule: Q01DX005 (ip), vehicle: water) was 93 % of control.
For CCCCCCCCCCCCCCC[N+]1(C)CCSCC1, the T/C (endpoint: mean survival time, dose: 25.0 mg/kg/injection, schedule: Q01DX001 (ip), vehicle: saline with Tween-80) was 100 % of control and the T/C (endpoint: mean survival time, dose: 50.0 mg/kg/injection, schedule: Q01DX001 (ip), vehicle: saline with Tween-80) was 95 % of control.
In the case of O=C(Nc1ccc(C2=NCCN2)cc1)c1ccc(NC(=O)c2ccc(C3=NCCN3)cc2)cc1, the T/C (endpoint: median survival time, dose: 30.0 mg/kg/injection, schedule: Q01DX009 (ip), vehicle: saline) is reported as 166 % of control and the T/C (endpoint: median survival time, dose: 60.0 mg/kg/injection, schedule: Q01DX009 (ip), vehicle: saline) is reported as 244 % of control.
With CN(CCN1CCCC1)C(=O)C(O)(c1ccccc1)c1ccccc1 the T/C [1] was 96 % of control and the T/C (endpoint: mean survival time, dose: 200.0 mg/kg/injection, schedule: Q04DX003 (ip), vehicle: saline) was 93 % of control.
For CC1(C)C(=O)C(Cl)C(c2ccccc2)=C1c1ccccc1 (stereo not given), the T/C [7] was 101 % of control, the T/C [8] was 96 % of control and the T/C [9] was 101 % of control.
With CCC(C)C(=O)O[C@H]1C(=O)O[C@@H]2C[C@H]3C(C)=CC(=O)[C@@H](O)[C@]3(C)[C@H]3[C@@H](O)[C@H](O)[C@@]4(C)OC[C@]32[C@@H]14 (stereo not given in full) the T/C (endpoint: mean survival time, dose: 2.0 mg/kg/injection, schedule: Q01DX009 (ip), vehicle: saline + alcohol) was 104 % of control and the T/C (endpoint: mean survival time, dose: 4.0 mg/kg/injection, schedule: Q01DX009 (ip), vehicle: saline + alcohol) was 102 % of control.
With CC(C)(C)C1COP(=S)(c2ccccc2)OC1 (stereo not given) the T/C (endpoint: mean survival time, dose: 25.0 mg/kg/injection, schedule: Q04DX003 (ip), vehicle: Klucel (hydroxypropylcellulose) (HPC)) was 94 % of control and 103 % of control, the T/C (endpoint: mean survival time, dose: 50.0 mg/kg/injection, schedule: Q04DX003 (ip), vehicle: Klucel (hydroxypropylcellulose) (HPC)) was 103 % of control and 97 % of control and the T/C (endpoint: mean survival time, dose: 100.0 mg/kg/injection, schedule: Q04DX003 (ip), vehicle: Klucel (hydroxypropylcellulose) (HPC)) was 97 % of control and 102 % of control.
In the case of O=C1CSC(=S)N1/N=C/c1cc2c(cc1[N+](=O)[O-])OCO2, the T/C (endpoint: mean survival time, dose: 75.0 mg/kg/injection, schedule: Q01DX001 (ip), vehicle: other) is reported as 102 % of control and the T/C (endpoint: mean survival time, dose: 300.0 mg/kg/injection, schedule: Q01DX001 (ip), vehicle: other) is reported as 90 % of control.
CCC(C)(O)C1CC1 (stereo not given) was tested, and the T/C [2] was 98 % of control, the T/C [3] was 103 % of control and the T/C [4] was 104 % of control.

Reference: PubChem BioAssay AID256 (DTP/NCI, 2004)
